Consider 60 compounds from patent US9963462B2 (priority 2015, dated 2018).

Experiment [1] has as its target SNAP-hSPR (sepiapterin reductase, SPR) (Homo sapiens, UniProt P35270). Briefly: biochemical. The class given is binding. The note with it: terbium labelled SNAP-hSPR / SSZ labelled SNAP-EGFP; read-out: hTR-FRET IC50.
Text: TR-FRET Assay: A TR-FRET (homogeneous, time-resolved, fluorescence resonance energy transfer) assay was used to assess activity of compounds following standard assay conditions. […] Compounds were screened at different concentrations and IC50 values calculated.
Terbium labelled SNAP-hSPR and SSZ (sulfasalazine) labelled SNAP-EGFP were used as the protein pair in this assay. Compounds were screened at different concentrations, and 1050 and Kd values calculated.
For experiment [2], the system named is BH4 levels in SK-N-BE (2) cells. In words: SKN-N-BE (2) cellular assay, BH4 levels by LC-MS. The class given is cell-based. The conditions noted are these: Homo sapiens, SKNBE2, read-out: SK-N-BE(2) IC50, SK-N-BE (2) cells, BH4 levels by LC-MS.
Experimental: SKN-N-BE(2) Cellular Assay: SK-N-BE (2) cells were seeded in sterile, 96-well plates and incubated for 12-24 hours at 37° C. with 5% CO2 supply. Media was removed and fresh DMEM/F-12 media (containing Glutamine & Pen/Strep but no FBS) was added. Compounds (at different concentrations) were added to different wells. The plates were then incubated for 6-48 hours at 37° C. with 5% CO2 supply. Plates were then centrifuged and the supernatant was removed. The plates were then optionally washed once with PBS. They were then sealed and stored at −80° C. or immediately used. The cells were lysed and the level of BH4 was assessed by LC-MS.
Compounds were assayed for SPR inhibitory activity using a SKN-N-BE (2) cellular assay according to the following procedure. SK-N-BE (2) cells were seeded in sterile, 96-well plates and incubated for 12-24 hours at 37° C. with 5% CO2 supply. Media was removed and fresh DMEM/F-12 media (containing Glutamine & Pen/Strep but no FBS) was added. Compounds (at different concentrations) were added to different wells. The plates were then incubated for 6-48 hours at 37° C. with 5% CO2 supply. Plates were then centrifuged and the supernatant was removed. The plates were then optionally washed once with PBS. They were then sealed and stored at −80° C. or immediately used in the next step. The cells were lysed and the levels of BH4 were assessed by LC-MS.

Usually IC50 stands for the midpoint of a concentration-inhibition curve.

Chain of SNAP-hSPR (sepiapterin reductase, SPR) (P35270 whole entry): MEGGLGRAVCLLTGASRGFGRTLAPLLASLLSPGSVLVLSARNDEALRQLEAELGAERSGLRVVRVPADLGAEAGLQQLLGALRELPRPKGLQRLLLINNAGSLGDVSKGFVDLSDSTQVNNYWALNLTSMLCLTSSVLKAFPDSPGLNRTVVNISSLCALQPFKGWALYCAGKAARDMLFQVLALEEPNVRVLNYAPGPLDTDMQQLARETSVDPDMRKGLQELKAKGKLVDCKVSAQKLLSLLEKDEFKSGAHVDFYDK

In the case of `Cc1c(CN2CCCCC2=O)cnn1-c1nc2c(c(=O)[nH]1)CCC2` [Q-0494, 1-[(5-methyl-1-{4-oxo-3H,4H,5H,6H,7H-cyclopenta[d]pyrimidin-2-yl}-1H-pyrazol-4-yL)methyl]piperidin-2-one], the results for the IC50 in experiment [1] and in experiment [2] were 6 nM and 300 nM, respectively. The matching figures for `Cc1c(C(=O)N2CCC(CC(F)(F)F)CC2)cnn1-c1nc2c(c(=O)[nH]1)CCC2` [Q-0476]: 3 nM and 56 nM.

Regarding `Cc1c(C(=O)N2CC3[C@@H](C2)CN3C(=O)OC(C)(C)C)cnn1-c1nn2cccc2c(=O)[nH]1` (stereo partly drawn) [Q-0806], the half-maximal inhibitory concentration (IC50) in experiment [1] worked out at 3 nM; in experiment [2], 1200 nM. The matching figures for `COC1CCN(C(=O)c2cnn(-c3nc4c(c(=O)[nH]3)CCC4)c2C)CC1` [Q-0461]: 3 nM and 400 nM. On the same counts, the results for `Cc1cc(=O)[nH]c(-n2ncc(C(=O)N3CCc4ccc(C(F)(F)F)cc4C3)c2C)n1` [Q-0298] are 20 nM and 1500 nM.

Consider `Cc1c(C(=O)N2CC(CNC(=O)OC(C)(C)C)C2)cnn1-c1nc2c(c(=O)[nH]1)CCC2` [Q-0568], for which the IC50 in experiment [1] worked out at 6 nM; in experiment [2], 200 nM. On the same counts, the results for `Cc1c(C(=O)N2CCC(C(C)(C)C)CC2)cnn1-c1nc2c(c(=O)[nH]1)CCC2` [Q-0580] are 3 nM and 22 nM.

Regarding `N#CC1(c2ccccc2)CCN(C(=O)c2cnn(-c3nn4cccc4c(=O)[nH]3)c2)CC1` [Q-0534], the IC50 in experiment [1] was 3 nM; in experiment [2] it was 100 nM. Consider `Cc1cc(=O)[nH]c(-n2ncc(CN3CCc4ccccc4C3)c2C)n1` [Q-0311], for which the IC50 in experiment [1] was 40 nM; in experiment [2], 11000 nM. As to `Cc1cc(=O)[nH]c(-n2ncc(C(=O)N3CCC(C)(C)C3)c2C)n1` [Q-0341], the half-inhibitory concentration (IC50) in experiment [1] is 5 nM; in experiment [2], 1800 nM. The matching figures for `Cc1cc(=O)[nH]c(-n2ncc(C(=O)N3c4ccccc4C[C@@H]3C)c2C)n1` (single isomer, unassigned) [Q-0372]: 5 nM and 300 nM. As to `O=c1[nH]c(-c2ccc(Br)cn2)nc2c1CCC2` [Q-0465], the IC50 amounted to 300 nM in experiment [1] and 150000 nM in experiment [2]. On the same counts, the results for `Cc1ccccc1N1CCN(C(=O)c2cnn(-c3nc4c(c(=O)[nH]3)CCC4)c2C)CC1` [Q-0485] are 9 nM and 62 nM. On the same counts, the results for `Cc1c(C(=O)N2CCC(Cc3ccccc3)CC2)cnn1-c1nc2c(c(=O)[nH]1)CCC2` [Q-0491] are 20 nM and 37 nM.

Turning to `O=C(c1cnn(-c2nn3c(F)ccc3c(=O)[nH]2)c1)N1CCC(CC(F)(F)F)CC1` [Q-0758], the 50% inhibitory concentration (IC50) is 2 nM in experiment [1] and 90 nM in experiment [2]. On the same counts, the results for `Cc1c(C(=O)N2CC3CC3(O)C2)cnn1-c1nc2c(c(=O)[nH]1)CCC2` (stereo not drawn) [Q-0614] are 10 nM and 1600 nM.

For the compound `Cc1c(C(=O)N2CCC(c3c[nH]c4cc(F)ccc34)CC2)cnn1-c1nc2c(c(=O)[nH]1)CCC2` [Q-0565], the IC50 in experiment [1] amounted to 6 nM; in experiment [2], 11 nM.

Consider `Cc1c(C(=O)N2CCC(c3c[nH]c4ccccc34)CC2)cnn1-c1nn2cccc2c(=O)[nH]1` [Q-0585], for which the IC50 in experiment [1] was determined as 6 nM; in experiment [2], 33 nM.

As to `O=C(c1cnn(-c2nn3cccc3c(=O)[nH]2)c1)N1CCC(c2nc3ccccc3s2)CC1` [Q-0537], the IC50 in experiment [1] stood at 40 nM; in experiment [2] it was 200 nM. The matching figures for `Cc1cc(=O)[nH]c(-n2ncc(C(=O)NC3CCc4ccccc43)c2C)n1` (stereo not drawn) [Q-0363]: 30 nM and 5800 nM. The matching figures for `Cc1c(C(=O)N2CCC(c3nc4ccccc4s3)CC2)cnn1-c1nn2cccc2c(=O)[nH]1` [Q-0608]: 2 nM and 56 nM. On the same counts, the results for `Cc1c(C(=O)N2CC(c3ccccc3)C2)cnn1-c1nc2c(c(=O)[nH]1)CCC2` [Q-0479] are 6 nM and 100 nM.

As to `Cc1cc(=O)[nH]c(-n2ncc(C(=O)N3CCc4[nH]ncc4C3)c2C)n1` [Q-0345], the results for the IC50 in experiment [1] and in experiment [2] were 10 nM and 78000 nM, respectively.

On to `O=C(c1cnn(-c2nn3cccc3c(=O)[nH]2)c1)N1CCC(S(=O)(=O)c2ccccc2)CC1` [Q-0535], for which the IC50 is 4 nM in experiment [1] and 400 nM in experiment [2]. As for `Cc1c(C(=O)N2CCC(Oc3ccccc3)CC2)cnn1-c1nc2c(c(=O)[nH]1)CCC2` [Q-0462], the IC50 was determined as 5 nM in experiment [1] and 94 nM in experiment [2]. The matching figures for `Cc1cc(=O)[nH]c(-n2cc(C)c(C(=O)N3CCc4ccccc4C3)n2)n1` [Q-0366]: 400 nM and 128000 nM. `Cc1c(C(=O)N2CCC(C(F)(F)F)CC2C)cnn1-c1nc2ccsc2c(=O)[nH]1` (stereo not drawn) [Q-0422]: the IC50 in experiment [1] worked out at 3 nM; in experiment [2], 200 nM. As to `CCC1(C#N)CCN(C(=O)c2cnn(-c3nn4cc(F)cc4c(=O)[nH]3)c2)CC1` [Q-0746], the IC50 in experiment [1] amounted to 4 nM; in experiment [2] it was 600 nM. On the same counts, the results for `Cc1c(C(=O)N2CCC(c3c[nH]c4ccccc34)CC2)ccnc1-c1nc2ccsc2c(=O)[nH]1` [Q-0594] are 300 nM and 3600 nM. On the same counts, the results for `Cc1c(C(=O)N2CCN(c3ccc(F)cc3)CC2)cnn1-c1nn2cccc2c(=O)[nH]1` [Q-0823] are 1 nM and 66 nM. As for `O=C(c1cnn(-c2nn3cccc3c(=O)[nH]2)c1)N1CCN(c2ccc(F)cc2F)CC1` [Q-0734], the IC50 in experiment [1] worked out at 4 nM; in experiment [2], 300 nM.

Take `Cc1cc(=O)[nH]c(-n2ncc(C(=O)N3C4CCC3CC4)c2C)n1` [Q-0329]: the half-inhibitory concentration (IC50) worked out at 10 nM in experiment [1] and 3500 nM in experiment [2].

In the case of `Cc1cc(=O)[nH]c(-n2ncc(C(=O)NC3CCCC3)c2C(F)F)n1` [Q-0331], the values for the IC50 in experiment [1] and in experiment [2] were 80 nM and 15000 nM, respectively. Turning to `Cc1nn(-c2nc3ccsc3c(=O)[nH]2)c(C)c1C(=O)N1CCC(C)(C)C1` [Q-0411], the half-maximal inhibitory concentration (IC50) was found to be 9 nM in experiment [1] and 2700 nM in experiment [2].

As to `Cc1c(C(=O)N2CCC(C(F)(F)F)CC2)cnn1-c1nc2c(c(=O)[nH]1)CCCC2` [Q-0425], the IC50 in experiment [1] stood at 30 nM; in experiment [2], 2100 nM. Consider `Cc1cc(=O)[nH]c(-n2cc(C(=O)N3CCc4ccccc4C3)cn2)n1` [Q-0314], for which the IC50 was 20 nM in experiment [1] and 5800 nM in experiment [2]. On the same counts, the results for `Cc1c(C(=O)N2CCC(C)CC2C)cnn1-c1nc2ccsc2c(=O)[nH]1` (stereo not drawn) [Q-0400] are 4 nM and 200 nM. The matching figures for `Cc1cc(=O)[nH]c(-n2ncc(C(=O)N3c4ccccc4CC3C)c2C)n1` (stereo not drawn) [Q-0303]: 7 nM and 900 nM. `Cc1c(C(=O)N2CCC(C#N)CC2)cnn1-c1nc2c(c(=O)[nH]1)CCC2` [Q-0464]: the IC50 in experiment [1] came to 3 nM; in experiment [2], 300 nM. Turning to `Cc1c(C(=O)N2CC(OCC(F)(F)F)C2)cnn1-c1nn2cccc2c(=O)[nH]1` [Q-0987], the IC50 in experiment [2] was 1100 nM.

For the compound `Cc1c(C(=O)N2CCn3cncc3C2)cnn1-c1nn2cccc2c(=O)[nH]1` [Q-0873], the IC50 in experiment [2] came to 10000 nM.

Turning to `Cc1c(C(=O)N2CCC(C(F)(F)F)C3(CCC3)C2)cnn1-c1nn2cccc2c(=O)[nH]1` (stereo not drawn) [Q-0960], the half-inhibitory concentration (IC50) in experiment [2] turned out to be 200 nM. Still for that read-out and setting: the value for `Cc1c(C(=O)Nc2ccc(F)cc2C(C)(C)O)cnn1-c1nn2cccc2c(=O)[nH]1` [Q-1008] was 300 nM; that for `Cc1c(C(=O)N2CC3CCN(C(=O)OC(C)(C)C)C3C2)cnn1-c1nn2cccc2c(=O)[nH]1` (stereo not drawn) [Q-0878] was 800 nM. Take `Cc1c(C(=O)N2CC[C@H](C(F)(F)F)C[C@@H]2C)cnn1-c1nc2c(c(=O)[nH]1)CCC2` (single isomer, unassigned) [Q-0459]: the IC50 in experiment [2] was determined as 59 nM.

With `Cc1c(C(=O)N2CCN(C(C#N)C(C)C)CC2)cnn1-c1nn2cccc2c(=O)[nH]1` (stereo not drawn) [Q-0982], in experiment [2], the IC50 is 10000 nM. Still for that read-out and setting: the value for `Cc1c(C(=O)N2CC(OCc3ccc(F)c(F)c3)C2)cnn1-c1nn2cccc2c(=O)[nH]1` [Q-1000] was 900 nM; that for `Cc1c(C(=O)N2CC3CCCC(C2)N3CCC(F)(F)F)cnn1-c1nn2cccc2c(=O)[nH]1` [Q-1036] was 70 nM; that for `Cc1c(C(=O)N2CC(N3CC[C@H](F)C3)C2)cnn1-c1nn2cccc2c(=O)[nH]1` [Q-1031] was 2300 nM. The same measure, in the same setting: next, `Cc1c(C(=O)N2CC3CC2C[C@H]3C#N)cnn1-c1nn2cccc2c(=O)[nH]1` (stereo partly drawn) [Q-1002]: 3400 nM.

With `Cc1c(C(=O)N2Cc3cc(Cl)cnc3C2)cnn1-c1nn2cccc2c(=O)[nH]1` [Q-1013], in experiment [2], the IC50 came to 1500 nM. On to `Cc1c(C(=O)N2CCC(n3nccc3C(F)(F)F)CC2)cnn1-c1nn2cccc2c(=O)[nH]1` [Q-0984], for which the half-inhibitory concentration (IC50) in experiment [2] was found to be 400 nM. In the case of `Cc1c(C(=O)N2CCC3(CC2)CC3c2nnc(-c3cccc(F)c3)o2)cnn1-c1nn2cccc2c(=O)[nH]1` (stereo not drawn) [Q-0905], in experiment [2], the IC50 is 600 nM. With `Cc1c(C(=O)N2CCN(c3nc4ccccc4s3)CC2)cnn1-c1nn2cccc2c(=O)[nH]1` [Q-0936], in experiment [2], the IC50 was 200 nM. Same read-out and setting: next, `Cc1c(C(=O)N2CC3(C2)CC(F)(F)C3)cnn1-c1nc2c(c(=O)[nH]1)CCC2` [Q-1023]: 700 nM; `Cc1c(C(=O)N2CCC(c3nncn3C3CC3)CC2)cnn1-c1nn2cccc2c(=O)[nH]1` [Q-0958]: 10000 nM; `Cc1c(C(=O)N2CCC(N3CCCC3)CC2)cnn1-c1nn2cccc2c(=O)[nH]1` [Q-0886]: 5400 nM. Same read-out and setting: next, `Cc1c(C(=O)N2C[C@H]3C[C@@H]2CN3C(=O)OC(C)(C)C)cnn1-c1nn2cccc2c(=O)[nH]1` [Q-0860]: 1000 nM. On the same count and under the same terms, the value for `Cc1c(C(=O)N2CC3CC(C)N(C(=O)C(C)(C)C)C3C2)cnn1-c1nn2cccc2c(=O)[nH]1` (stereo not drawn) [Q-0946] was 1100 nM. Take `Cc1c(C(=O)N2CC[C@@H]3CN(C(=O)OC(C)(C)C)C[C@@H]32)cnn1-c1nn2cccc2c(=O)[nH]1` [Q-0897]: in experiment [2], the IC50 turned out to be 500 nM.
